Counter-ions that a name gives are not always drawn.
Assays:
Factor Xa = molecular target: T1, Factor Xa (Homo sapiens, UniProt P00742); assay: Determination of Ki values, chromogenic substrate, Dixon evaluation: Factor Xa; assay type: biochemical; details: 25° C., tris buffer pH 8.0, substrate CH3OCO-D-Cha-Gly-Arg-pNA
T1 construct: purchased Haemochrom Diagnostica GmbH (Essen, D)

Plasma-kallikrein = molecular target: T2, Plasma-kallikrein (Homo sapiens, UniProt P03952); assay: Determination of Ki values, chromogenic substrate, Dixon evaluation: plasma-kallikrein; assay type: biochemical; details: 25° C., tris buffer pH 8.0, substrate Bz-Pro-Phe-Arg-pNA; read-out: Ki PK (plasma-kallikrein)
T2 construct: purchased Haemochrom Diagnostica GmbH (Essen, D)
Excerpt: In a particularly preferred embodiment the compound according to Formula (I) inhibits not only the blood coagulation factor XA but also thrombin and/or plasma kallikrein. […] Here too the Ki value stands for the dissociation constant of the respective enzyme-inhibitor complex. The determination of the Ki values of the inhibitors vis-a-vis thrombin and plasma kallikrein is preferably carried out in a similar manner to the determination, described above, of the Ki values of the inhibitors vis-a-vis the coagulation factor Xa, but in this case CH3SO2-D-HHT-gly-arg-pNA (with HHT=hexahydrothyrosin, and pNA=para-nitroaniline; sold under the commercial name Pefachrome tPA) are used as substrates in the case of thrombin and bz-pro-phe-arg-pNA (with bz=[…], and pNA=para-nitroaniline; sold under the commercial name Chromozym PK) in the case of plasma-kallikrein.
(§1) The inhibitors used here are the commercially available exemplary inhibitors Pefabloc tPA/Xa (2,7-bis(4-amidinobenzylidene)-cyclopeptanone-(1), Pentapharm Ltd. Basel, Switzerland), CJ-FXa (benzylsulphonyl-D-arginyl-glycyl-4-amidinobenzylamide, Haemochrom GmbH, Essen, Germany) and CJ-PK (benzylsulphonyl-D-seryl-carbobenzoxylsyl-4-amidinobenzylamide, Haemochrom GmbH, Essen, Germany). Research samples were available of DX-9065a ((+)-(2S)-2-[4-[[3S)-1-acetimidoyl-3-pyrrodinyl]oxy]phenyl]-3-[7-amidino-2-naphthyl]propanic acid, Daiichi Pharmaceutical Company Ltd., Tokyo, Japan), and Otamixaban (2-(R)-(3-carbamimidoylbenyzyl)-3-(R)-[4-(1-oxypyridin-4-yl)benzoylamino]-butyric acid-methylester, Sanofi-Aventis GmbH, Frankfurt, Germany), both of which are undergoing clinical tests. In order to examine the inhibitory action of these exemplarily used inhibitors on the blood coagulation factors plasma-kallikrein, VIIa, Xa, XIa and XIIa, the Ki values of the respective enzyme-inhibitor complexes were determined.
(§2) The enzymes were produced by Haemochrom Diagnostica GmbH (Essen, D) and were dissolved in 0.154 mol/l NaCl. The substrates (Pentapharm AG, Basel, CH) were dissolved in H2O and the inhibitor was dissolved in the above-mentioned tris buffer. The following substrates were used for the individual enzymes:
(§3) 200 μl of inhibitor solution were mixed with 25 μl of substrate for the determination and the reaction was started by the addition of 50 μl of enzyme. After a reaction time of 3-5 mins. 25 μl of acetic acid (50%) were added and the extinction was measured at 405 nm with a microplate reader (iEMS Reader MF 12401, Labsystems, Helsinki, Finland). The evaluation was carried out graphically according to Dixon (Biochem. J., 55, 170, 1953).
(§4) The enzymes were produced by Haemochrom Diagnostica GmbH (Essen, D), and only thrombin was manufactured in our own laboratory according to Walsmann (Pharmazie 23, 401-402, 1968). All the enzymes were dissolved in 0.154 mol/l NaCl. The substrates (Pentapharm AG, Basel, CH) were dissolved in H2O and the inhibitor was dissolved in the above-mentioned tris buffer. The following substrates were used for the individual enzymes:
as §3, with “1401,” for “12401,”

Factor XIIa = molecular target: T3, Factor XIIa (Homo sapiens, UniProt P00748); assay: Determination of Ki values, chromogenic substrate, Dixon evaluation: Factor XIIa; assay type: biochemical; details: 25° C., tris buffer pH 8.0, substrate H-D-HHT-Gly-Arg-pNA
T3 construct: purchased Haemochrom Diagnostica GmbH (Essen, D)
T3 sequence (P00748 373-615 limits assumed): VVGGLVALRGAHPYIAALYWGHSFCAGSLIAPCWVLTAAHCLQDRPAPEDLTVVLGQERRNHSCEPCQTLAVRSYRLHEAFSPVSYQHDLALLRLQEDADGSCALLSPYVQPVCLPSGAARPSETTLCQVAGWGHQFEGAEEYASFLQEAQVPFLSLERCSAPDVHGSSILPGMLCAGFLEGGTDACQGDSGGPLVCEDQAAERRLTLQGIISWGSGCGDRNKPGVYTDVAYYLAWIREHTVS
Excerpt: as §1, §2, §3, §4
as §3, with “1401,” for “12401,”

Factor VIIa = molecular target: T4, Factor VIIa (Homo sapiens, UniProt P08709); assay: Determination of Ki values, chromogenic substrate, Dixon evaluation: Factor VIIa; assay type: biochemical; details: 25° C., tris buffer pH 8.0, substrate CH3SO2-D-phe-Gly-Arg-pNA
T4 construct: purchased Haemochrom Diagnostica GmbH (Essen, D)
T4 sequence (P08709 213-466 limits assumed): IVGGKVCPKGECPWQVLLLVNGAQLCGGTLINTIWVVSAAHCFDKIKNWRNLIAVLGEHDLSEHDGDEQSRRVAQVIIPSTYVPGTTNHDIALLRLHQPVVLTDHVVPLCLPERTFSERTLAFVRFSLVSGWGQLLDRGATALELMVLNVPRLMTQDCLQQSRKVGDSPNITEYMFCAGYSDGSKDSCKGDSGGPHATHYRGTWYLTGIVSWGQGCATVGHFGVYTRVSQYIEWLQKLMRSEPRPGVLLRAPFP
T4 sequence (P08709 61-212 partner limits assumed): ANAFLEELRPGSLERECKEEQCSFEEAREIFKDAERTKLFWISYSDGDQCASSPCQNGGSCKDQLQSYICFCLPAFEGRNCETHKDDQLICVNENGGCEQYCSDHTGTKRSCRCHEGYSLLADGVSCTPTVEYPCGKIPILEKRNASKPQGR
Excerpt: as §1, §2, §3, §4
as §3, with “1401,” for “12401,”

thrombin formation = assay: Inhibition of thrombin formation (prothrombin fragment F1+2) in hirudin-anticoagulated plasma after activation by kaolin; assay type: biochemical, human; details: inhibitor 100 μM, 37° C.
Protocol: In this example thrombin formation was activated in plasma anticoagulated with hirudin by the addition of kaolin and the ability of the inhibitors to inhibit thrombin formation was examined.
Blood sampled from a patient was initially anticoagulated by means of the thrombin inhibitor hirudin. For this purpose 9 parts of blood were mixed with 1 part of hirudin solution (recombinant hirudin HBW 023, Hoechst, Frankfurt, 2000 E/ml of physiological NaCl solution), then centrifuged for 10 minutes at 1300 revolutions per minute (rpm). 900 μl of the plasma anticoagulated with hirudin, present in excess, were mixed in polypropylene tubes with 50 μl of inhibitor solution or 0.9% NaCl solution and 50 μl kaolin suspension (from APTT-Test from Roche Diagnostics, diluted 1:250 before use with physiological NaCl solution), and incubated at 37° C. with light shaking. In this case kaolin acts as a non-physiological surface which activates the blood coagulation thereby finally stimulating thrombin formation. At certain times the quantity of the thrombin formed was determined immunologically on the basis of the formation of the prothrombin fragment F1+2 (Enzygnost F1+2 micro, Dade Behring GmbH, Marburg). This determination is based on an enzyme immunoassay according to the sandwich principle. For this purpose aliquot volumes (600 μl) were anticoagulated at certain times with 0.1 M EDTA (40 μl) and kept at −20° C. To determine the concentration of the prothrombin fragment F1+2 50 μl of plasma (if necessary diluted with PBS, phosphate-buffered saline) were incubated with monoclonal antibodies against the human prothrombin fragment F1+2, which were fixed on a microtitre plate included in the test kit. After a washing stage with PBS, which was used to remove sample material not bound by the antibodies, antibodies conjugated with peroxidase were incubated against human prothrombin binding to the free F1+2 determinants. […] This was then determined photometrically at a wavelength of 492 nm. […]

Factor XIa = molecular target: T5, Factor XIa (Homo sapiens, UniProt P03951); assay: Determination of Ki values, chromogenic substrate, Dixon evaluation: Factor XIa; assay type: biochemical; details: 25° C., tris buffer pH 8.0, substrate H-D-Lys(Cbo)-Pro-Arg-pNA
T5 construct: purchased Haemochrom Diagnostica GmbH (Essen, D)
Excerpt: as §1, §2, §3, §4
as §3, with “1401,” for “12401,”

thrombocytes [1] = assay: Induced aggregation of thrombocytes (Born in PRP, impedance full blood aggregometry) after anticoagulation, Example 4; assay type: cell-based, human; details: 24 hours after sampling; ADP, collagen, arachidonic acid
Protocol: (§5) For this purpose blood was taken within 1 hour from 12 healthy subjects. 1 aliquot of each of the 12 blood samples was anticoagulated with citrate and 1 other aliquot of the 12 blood samples was anticoagulated with a direct inhibitor of the blood coagulation factor Xa. For this purpose 9 parts of blood were mixed with 1 part of citrate (0.106 mol/l) or 1 part of inhibitor solution in a suitable concentration. Platelet-rich plasma (PRP) was manufactured by centrifuging at 164×g over 10 minutes. The thrombocytes in PRP were activated by induced aggregation according to Born with 5 μmols/l of ADP, 2 μg/ml of collagen and 0.5 mmol/l of arachidonic acid. Impedance full blood aggregometry was carried out with the Multiplate aggregometer and with 6.5 μmols/l of ADP, 3.2 μg/ml of collagen and 0.5 mmol/l of arachidonic acid. The analyses were conducted 1, 2, 3, 4, 5, 10 and 24 hours after blood sampling.

thrombocytes [2] = assay: Thrombocyte propagation on plastic object carriers, Example 4; assay type: cell-based, human; details: PRP, 24 hours after blood sampling
Protocol: as §5
On the contrary, less than 10% of the thrombocytes in RPR anticoagulated with citrate were still propagated 24 hours after blood sampling.

human vein blood = assay: Storage of human vein blood after anticoagulation with inhibitor (F1+2 immunoassay)
Protocol: In the sense of the invention anticoagulation means that the re-formation of thrombin is inhibited in the sampled blood. According to the invention thrombin re-formation is inhibited when no more than 1 nM of thrombin is re-formed in the sampled blood. As described above, the activation of prothrombin to thrombin represents an essential step in the blood coagulation cascade. In this case the prothrombin fragment 1+2 (F1+2) is released in equivalent quantities. It is therefore possible to quantify the thrombin actually formed by determining the fragment produced, thus enabling the prothrombin fragment F1+2 to be used as an indirect marker of an activation of prothrombin to thrombin. The concentration of the prothrombin fragment F1+2 formed may be determined immunologically, for example, with commercial enzyme immunoassays (for example Enzygnost F1+2 micro, Dade Behring GmbH, Marburg).
According to the invention anticoagulation therefore means that no more than 1 nM of prothrombin fragment F1+2 is newly formed in the blood after its sampling. […] Without suitable treatment of the blood to prevent coagulation there is an increase in the concentration of the prothrombin fragment F1+2 in this example to well over 1.3 nM, within a few minutes, due to the plasmatic coagulation, i.e. the blood coagulates.
In this experiment it was determined how long human vein blood can be stored without the formation of thrombin or activation of thrombocytes.
For this purpose blood (9 parts) sampled from a patient was mixed with inhibitor solution (0.05 mM, 0.5 mM or 5 mM in physiological NaCl solution; 1 part). Some of the blood was stored at 25° C., the remainder in the refrigerator at 4° C. The quantity of thrombin formed was determined immunologically during storage based on the formation of the prothrombin fragment F1+2 (Enzygnost F1+2 micro, Dade Behring GmbH, Marburg). […] In this case it is irrelevant whether the blood samples were kept at room temperature (approx. 25° C.) or at 4° C.
For this purpose blood (9 parts) sampled from a patient was mixed with inhibitor solution (0.05 mM, 0.5 mM or 5 mM in physiological NaCl solution; 1 part) and stored at room temperature (about 22±2° C.). The quantity of thrombin formed was determined immunologically during storage based on the formation of the prothrombin fragment F1+2 (Enzygnost F1+2 micro, Dade Behring GmbH, Marburg). It was shown that BAPA′ is capable of keeping anticoagulated blood uncoagulated at a concentration in the blood of 500 μM or 50 μM for more than 48 hours (Table 4). At a concentration of 5 μM BAPA′ prevents coagulation for more than 8 hours.

[3] = 25° C., concentration in the blood 50 μM
[4] = 25° C., concentration in the blood 500 μM

T5 sequence (P03951 388-625 limits assumed): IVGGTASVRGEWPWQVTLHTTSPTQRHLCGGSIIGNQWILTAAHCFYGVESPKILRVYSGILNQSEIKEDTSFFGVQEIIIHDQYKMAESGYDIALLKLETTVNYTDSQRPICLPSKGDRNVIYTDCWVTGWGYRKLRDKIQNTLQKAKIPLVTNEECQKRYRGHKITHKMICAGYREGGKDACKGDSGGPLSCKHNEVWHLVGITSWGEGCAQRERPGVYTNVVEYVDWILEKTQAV
T5 sequence (P03951 19-387 partner limits assumed): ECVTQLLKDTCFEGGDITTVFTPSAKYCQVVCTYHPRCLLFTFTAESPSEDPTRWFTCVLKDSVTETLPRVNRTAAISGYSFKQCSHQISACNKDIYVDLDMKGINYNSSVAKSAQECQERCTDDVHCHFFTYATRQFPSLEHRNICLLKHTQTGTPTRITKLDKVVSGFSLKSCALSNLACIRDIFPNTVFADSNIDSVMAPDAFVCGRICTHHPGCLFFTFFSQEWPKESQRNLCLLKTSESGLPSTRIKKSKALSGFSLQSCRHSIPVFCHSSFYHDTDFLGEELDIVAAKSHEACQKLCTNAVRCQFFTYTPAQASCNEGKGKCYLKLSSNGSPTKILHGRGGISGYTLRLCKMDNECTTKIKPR
T2 sequence (P03952 391-638 limits assumed): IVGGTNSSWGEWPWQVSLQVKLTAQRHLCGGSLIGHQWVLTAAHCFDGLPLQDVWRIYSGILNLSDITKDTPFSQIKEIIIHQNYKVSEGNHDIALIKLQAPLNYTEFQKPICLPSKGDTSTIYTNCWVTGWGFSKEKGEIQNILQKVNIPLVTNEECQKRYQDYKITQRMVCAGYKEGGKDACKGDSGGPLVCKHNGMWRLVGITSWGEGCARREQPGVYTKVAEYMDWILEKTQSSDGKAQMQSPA
T2 sequence (P03952 20-390 partner limits assumed): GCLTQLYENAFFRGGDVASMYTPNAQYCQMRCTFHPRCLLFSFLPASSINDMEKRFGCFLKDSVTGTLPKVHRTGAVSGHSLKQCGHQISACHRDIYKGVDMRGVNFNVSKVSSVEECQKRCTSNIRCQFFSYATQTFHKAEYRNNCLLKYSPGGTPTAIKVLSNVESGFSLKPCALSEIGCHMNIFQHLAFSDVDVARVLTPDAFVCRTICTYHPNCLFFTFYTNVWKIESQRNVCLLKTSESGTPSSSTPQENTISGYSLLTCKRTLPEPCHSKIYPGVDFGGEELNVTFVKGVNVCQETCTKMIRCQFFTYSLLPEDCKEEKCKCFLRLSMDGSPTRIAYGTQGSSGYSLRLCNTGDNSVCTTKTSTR
T1 sequence (P00742 235-488 limits assumed): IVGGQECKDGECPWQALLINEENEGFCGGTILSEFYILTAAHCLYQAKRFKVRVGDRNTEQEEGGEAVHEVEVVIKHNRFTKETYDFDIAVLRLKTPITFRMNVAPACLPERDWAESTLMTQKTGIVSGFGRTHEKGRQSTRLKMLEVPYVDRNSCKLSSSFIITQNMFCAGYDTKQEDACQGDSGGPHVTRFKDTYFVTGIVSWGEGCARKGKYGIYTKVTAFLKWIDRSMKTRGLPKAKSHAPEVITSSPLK
T1 sequence (P00742 41-179 partner limits assumed): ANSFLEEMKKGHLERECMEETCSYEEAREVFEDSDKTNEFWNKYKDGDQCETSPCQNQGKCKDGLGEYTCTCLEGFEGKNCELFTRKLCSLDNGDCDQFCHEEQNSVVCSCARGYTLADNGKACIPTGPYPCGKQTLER

## benzylsulphonyl-D-seryl-carbobenzoxylsyl-4-amidinobenzylamide [CJ-PK]
Factor Xa
  Ki: 2900 nM
Plasma-kallikrein
  Ki: 3.5 nM
Factor XIIa
  Ki: 12000 nM
Factor VIIa
  Ki: 3800 nM
Thrombin formation
  suppression of thrombin formation after kaolin activation: suppress thrombin formation effectively
Factor XIa
  Ki: 250 nM

## O=C(O)CC(O)(CC(=O)O)C(=O)O [citrate, trisodium citrate]
Thrombocytes [1]
  induced aggregation relative to the initial value: 20 to 30 % of the initial value
Thrombocytes [2]
  thrombocytes showing normal propagation on plastic object carriers: less than 10%

## N=C(N)NCCC[C@@H](NS(=O)(=O)Cc1ccccc1)C(=O)NCC(=O)NCc1ccc(C(=N)N)cc1 [CJ-FXa, benzylsulphonyl-D-arginyl-glycyl-4-amidinobenzylamide]
Factor Xa
  Ki: 3.5 nM
Human vein blood; 4° C., concentration in the blood 500 μM
  Anticoagulation time: >48 h
Human vein blood; [3]
  Anticoagulation time: approx. 24 h
Human vein blood; 25° C., concentration in the blood 50 μM, listed as CJ-Fxa
  Anticoagulation time: 12 to 24 h
Human vein blood; [4]
  Anticoagulation time: >48 h
Plasma-kallikrein
  Ki: 84 nM
Factor XIIa
  Ki: 350 nM
Factor VIIa
  Ki: 9600 nM
Factor XIa
  Ki: 800 nM

## CC(=N)N1CC[C@H](Oc2ccc([C@H](Cc3ccc4ccc(C(=N)N)cc4c3)C(=O)O)cc2)C1 [DX-9065a]
Human vein blood; [3]
  Anticoagulation time: 5 to 7 h
Human vein blood; [4]
  Anticoagulation time: 7 to 12 h
Plasma-kallikrein
  Ki: 530 nM
Factor XIIa
  Ki: 340 nM
Factor VIIa
  Ki: 92000 nM
Factor XIa
  Ki: 2300 nM

## N=C(N)NCCC[C@@H](NS(=O)(=O)Cc1ccccc1)C(=O)N1CCC[C@H]1C(=O)NCc1ccc(C(=N)N)cc1 [BAPA′, benzylsulphonyl-D-arginyl-prolyl-4-amidinobenzylamide]
Factor XIIa
  Ki: 130 nM
Factor VIIa
  Ki: 830 nM
Factor XIa
  Ki: 27 nM
